Test results reported in ChEMBL document CHEMBL6092161, “First fragment-based screening identifies new chemotypes inhibiting ERAP1-metalloprotease” (Eur J Med Chem, 2024).
pIC50: −log10 of the molar value.

Tests used:
[1] = test system: Insulin-regulated aminopeptidase (Homo sapiens); assay: Inhibition of recombinant human IRAP at 300 uM using L-AMC as substrate preincubated for 30 mins followed by substrate addition and measured after 1 hr by fluorescence based assay; settings: time 90.0 min
[2] = biological target: T1, Endoplasmic reticulum aminopeptidase 1 (Homo sapiens, UniProt Q9NZ08); assay: Inhibition of recombinant human ERAP1 using L-AMC as substrate preincubated for 30 mins followed by substrate addition and measured after 1 hr by fluorescence based assay
[3] = biological target: T1, Endoplasmic reticulum aminopeptidase 1; assay: Inhibition of human ERAP1 using L-SIINFEKL as substrate by LC-MS/MS method
[4] = biological target: Endoplasmic reticulum aminopeptidase 2 (Homo sapiens) (UniProt Q6P179); assay: Inhibition of recombinant human ERAP2 at 300 uM using R-AMC as substrate preincubated for 30 mins followed by substrate addition and measured after 1 hr by fluorescence based assay relative to control; settings: time 90.0 min
[5] = biological target: T1, Endoplasmic reticulum aminopeptidase 1; assay: Inhibition of recombinant human ERAP1 using L-AMC as substrate at 4 uM preincubated for 30 mins followed by substrate addition and measured after 1 hr by fluorescence based assay relative to control; settings: time 90.0 min
[6] = biological target: T1, Endoplasmic reticulum aminopeptidase 1; assay: Inhibition of recombinant human ERAP1 using L-AMC as substrate at 90 uM preincubated for 30 mins followed by substrate addition and measured after 1 hr by fluorescence based assay relative to control; settings: time 90.0 min
[7] = biological target: Endoplasmic reticulum aminopeptidase 2 (Homo sapiens) (UniProt Q6P179); assay: Inhibition of recombinant human ERAP2 at 90 uM using R-AMC as substrate preincubated for 30 mins followed by substrate addition and measured after 1 hr by fluorescence based assay relative to control; settings: time 90.0 min

T1 sequence (Q9NZ08 whole entry): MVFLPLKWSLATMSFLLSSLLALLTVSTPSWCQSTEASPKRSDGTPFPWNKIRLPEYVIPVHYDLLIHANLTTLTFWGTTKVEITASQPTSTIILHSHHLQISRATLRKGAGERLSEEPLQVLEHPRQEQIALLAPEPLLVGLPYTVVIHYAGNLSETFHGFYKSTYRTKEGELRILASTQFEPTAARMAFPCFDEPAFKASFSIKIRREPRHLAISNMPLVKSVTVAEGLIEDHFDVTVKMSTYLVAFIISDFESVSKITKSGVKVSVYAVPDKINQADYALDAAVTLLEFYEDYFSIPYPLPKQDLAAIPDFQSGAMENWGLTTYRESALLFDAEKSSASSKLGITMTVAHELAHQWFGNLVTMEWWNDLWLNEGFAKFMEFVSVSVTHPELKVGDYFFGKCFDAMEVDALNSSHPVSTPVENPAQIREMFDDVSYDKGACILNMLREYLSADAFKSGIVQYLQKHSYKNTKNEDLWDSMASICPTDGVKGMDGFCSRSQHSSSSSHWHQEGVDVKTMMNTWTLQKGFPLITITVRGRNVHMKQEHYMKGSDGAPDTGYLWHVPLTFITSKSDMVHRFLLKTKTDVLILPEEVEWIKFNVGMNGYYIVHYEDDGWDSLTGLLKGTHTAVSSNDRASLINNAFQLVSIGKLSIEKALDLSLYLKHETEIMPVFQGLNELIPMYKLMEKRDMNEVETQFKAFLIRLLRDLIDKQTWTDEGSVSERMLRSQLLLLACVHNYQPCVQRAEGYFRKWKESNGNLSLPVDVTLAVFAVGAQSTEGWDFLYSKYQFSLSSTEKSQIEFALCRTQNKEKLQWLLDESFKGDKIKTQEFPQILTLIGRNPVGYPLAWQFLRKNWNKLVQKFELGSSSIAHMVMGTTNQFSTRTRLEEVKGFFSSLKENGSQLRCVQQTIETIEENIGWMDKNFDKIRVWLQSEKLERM
Sequence of Endoplasmic reticulum aminopeptidase 2 (Homo sapiens) (Q6P179 whole entry): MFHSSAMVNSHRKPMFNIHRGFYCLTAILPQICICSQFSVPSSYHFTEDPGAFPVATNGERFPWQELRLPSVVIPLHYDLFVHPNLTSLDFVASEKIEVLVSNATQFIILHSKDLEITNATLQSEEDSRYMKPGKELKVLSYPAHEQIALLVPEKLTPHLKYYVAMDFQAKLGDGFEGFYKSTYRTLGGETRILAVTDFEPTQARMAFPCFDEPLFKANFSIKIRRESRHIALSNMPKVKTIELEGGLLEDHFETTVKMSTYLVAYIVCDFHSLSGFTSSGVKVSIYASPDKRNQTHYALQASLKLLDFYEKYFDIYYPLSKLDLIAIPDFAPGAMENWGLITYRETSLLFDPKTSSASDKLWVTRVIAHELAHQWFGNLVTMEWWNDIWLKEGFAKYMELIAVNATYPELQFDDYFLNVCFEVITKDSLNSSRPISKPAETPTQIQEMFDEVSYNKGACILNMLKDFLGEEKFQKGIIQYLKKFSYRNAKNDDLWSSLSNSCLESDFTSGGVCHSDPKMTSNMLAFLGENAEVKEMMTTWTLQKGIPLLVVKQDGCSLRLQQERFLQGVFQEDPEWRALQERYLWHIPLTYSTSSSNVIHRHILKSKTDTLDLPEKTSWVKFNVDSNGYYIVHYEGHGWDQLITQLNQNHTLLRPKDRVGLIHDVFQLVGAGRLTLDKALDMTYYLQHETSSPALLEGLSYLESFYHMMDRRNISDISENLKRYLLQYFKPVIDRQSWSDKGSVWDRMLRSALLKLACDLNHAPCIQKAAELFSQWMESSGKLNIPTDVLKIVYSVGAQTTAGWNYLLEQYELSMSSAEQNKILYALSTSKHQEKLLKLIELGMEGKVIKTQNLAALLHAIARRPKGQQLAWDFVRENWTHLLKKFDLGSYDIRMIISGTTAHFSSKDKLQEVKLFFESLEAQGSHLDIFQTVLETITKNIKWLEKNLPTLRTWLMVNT

| SMILES | inhibition [1] [%] | pIC50 [2] | other results |
| --- | --- | --- | --- |
| CN1C(=O)S/C(=C\c2ccc(C(=O)O)cc2)C1=O | 47 | – | – |
| COC(=O)c1ccc(/C=C2\SC(=S)NC2=O)cc1 | < 30 | – | – |
| COc1ccc(Cc2c(O)nc(S)nc2O)cc1 | – | 4.23 | – |
| O=C1NC(=S)S/C1=C\c1ccc(C(=O)O)cc1 | – | 4.71 | pIC50 [3]: 4.54 |
| O=C(O)Cc1cccc(S(=O)(=O)N2CCCC2)c1 | < 30 | – | – |
| CN1C(=O)/C(=C/c2ccc(C(=O)O)cc2)SC1=S | 51 | – | inhibition [4]: 43% |
| COC(=O)c1ccc(CC2SC(=S)NC2=O)cc1 (centres undefined) | < 30 | – | – |
| O=C1NC(=O)/C(=C/c2ccc(C(=O)O)cc2)S1 | 38 | – | – |
| O=C(O)c1ccc(CC2SC(=S)NC2=O)cc1 (centres undefined) | < 30 | – | inhibition [4]: < 30% |
| CC(C)C[C@H](NC(=O)[C@@H](O)[C@H](N)Cc1ccccc1)C(=O)O | – | – | inhibition [5]: 100%; inhibition [6]: 100%; inhibition [7]: 50% |
| O=C1NC(=O)C(Cc2ccc(C(=O)O)cc2)S1 (centres undefined) | 30 | – | – |
| Nc1[nH]cnc2nc(S)nc1-2 | – | 5.66 | pIC50 [3]: 4.99 |
| O=C1NC(=O)/C(=C/c2ccc(C(=O)O)cc2)N1 | 30 | – | – |
| O=C(O)Cc1ccc(S(=O)(=O)N2CCCCC2)s1 | 58 | – | inhibition [4]: 38% |
| O=C(O)Cc1ccc(S(=O)(=O)N2CCCC2)s1 | 62 | 4.57 | – |
| O=c1[nH]c(=S)[nH]c(O)c1-c1ccccc1 | – | 4.08 | – |
